Test results taken from patent publication US6583265B1, “Cyclosporins” (C-Chem AG, priority 1998, dated 2003).
≈ marks a conversion by molar mass, not a printed value. Where two headings read alike, the source gives them in different places. Peptide text beside a SMILES is read from it.

Legend:
HIV = format: cell-based
From the text: The inhibitory effect of test compounds on the HIV-induced cytopathic effect on the MT4 T cell line as described by R. Pauwels in J. Virol. Methods, 1988, Vol. 20, pp 309-321 was used.

[1] = system: T. gondii tachyzoites, strain RH; format: cell-based, Toxoplasma gondii; details: 72 h
Experimental: Using microliter plates, T. gondii tachyzoites, strain RH were co-incubated with fibroblasts (MCR5, Bio-Merieux) for 72 hrs in the presence and absence of test compounds T. gondii was quantified using an ELISA. The activities of the test compounds are as follows: […]

[2] = Antiinflammatory activity, adjuvent arthritis test (Pearson); format: in vivo; details: oral, solutions in olive oil and tween 80
Experimental: The antiinflammatory activity of test compounds was determined by the adjuvent arthritis test described by Pearson, “Arthr. Rheum”, 1959, Vol. 2., 440. Test compounds were administered orally as solutions in olive oil and tween 80.

cyclophilin = cyclophilin (Homo sapiens, UniProt P62937); assay: Test for cyclophilin binding (Fliri); details: ratio to cyclosporin A
cyclophilin, sequence (P62937 whole entry): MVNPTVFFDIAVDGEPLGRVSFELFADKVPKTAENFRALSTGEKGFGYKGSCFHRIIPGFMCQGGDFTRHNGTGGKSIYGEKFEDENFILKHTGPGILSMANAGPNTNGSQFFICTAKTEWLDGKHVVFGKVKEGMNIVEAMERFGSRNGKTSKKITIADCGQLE
From the text: To measure the affinity and inhibition of test compounds for cyclophilin, the test described by H. Fliri in “Antibiotics and Antiviral compounds”, 1993, Verlag Chemie, K.Krohn, H. A. Kirst, and H. Maag, eds., p 229-240 was used.

[3] = biological target: recombinant human cyclophilin 18 (Homo sapiens, UniProt P62937); assay: Test for inhibition of cyclophilin (chymotrypsin-coupled hydrolysis of Succ-Ala-Phe-Pro-Phe-4-nitroanilide); format: biochemical; details: recombinant human cyclophilin 18, 10 °C, HEPES buffer, 5 minutes preincubation, substrate 50 μM
recombinant human cyclophilin 18, sequence (P62937 whole entry): as above
Experimental: The test described by G. Fischer et al., Biomed. Biochim. Acta, Vol. 43, 1101-1111 (1984) was used. Specifically, 5 μL of a 1 μM solution of recombinant human cyclophilin 18 was dissolved, at 10,0±0.3° C. in 1250 μL HEPES buffer; α-chymotrypsin was added to give a final concentration of 30 μM. […] After 5 minutes preincubation, Succ-Ala-Phe-Pro-Phe-4-nitroanilide (SEQ ID No. 1) was added to give a final concentration of 50 μM. The hydrolysis of the substrate was measured spectrophotometrically at […].

Structure (SMILES)	Activity against T. gondii (IC50) [1] [mg/L]	ED50, dose effective in reducing the joint swelling by 50% [2] [mg/kg]	IC50 [3] [µM]	also measured
C/C=C/C[C@@H](C)[C@@H](O)[C@H]1C(=O)N[C@@H](CC)C(=O)N(C)C(SCCN(C)C)C(=O)N(C)[C@@H](CC(C)C)C(=O)N[C@@H](C(C)C)C(=O)N(C)[C@@H](CC(C)C)C(=O)N[C@@H](C)C(=O)N[C@H](C)C(=O)N(C)[C@@H](CC(C)C)C(=O)N(C)[C@@H](CC(C)C)C(=O)N(C)[C@@H](C(C)C)C(=O)N1C (some centres unmarked) [Example 9, 3-(2-dimethylaminoethylthio)-cyclosporin]	0.1			IC50 (HIV; HIV-induced cytopathic effect on MT4 T cell line): 0.03 mg/L (≈ 0.023 µM)
C/C=C/C[C@@H](C)[C@@H](O)[C@H]1C(=O)N[C@@H](CC)C(=O)N(C)C(OC(C)=O)C(=O)N(C)[C@@H](CC(C)C)C(=O)N[C@@H](C(C)C)C(=O)N(C)[C@@H](CC(C)C)C(=O)N[C@@H](C)C(=O)N[C@H](C)C(=O)N(C)[C@@H](CC(C)C)C(=O)N(C)[C@@H](CC(C)C)C(=O)N(C)[C@@H](C(C)C)C(=O)N1C (some centres unmarked) [Example 13, 3-Acetoxy-cyclosporin]	1			IC50 (HIV): 0.15 mg/L (≈ 0.119 µM)
C/C=C/C[C@@H](C)[C@@H](O)[C@H]1C(=O)N[C@@H](CC)C(=O)N(C)C(OC)C(=O)N(C)[C@@H](CC(C)C)C(=O)N[C@@H](C(C)C)C(=O)N(C)[C@@H](CC(C)C)C(=O)N[C@@H](C)C(=O)N[C@H](C)C(=O)N(C)[C@@H](CC(C)C)C(=O)N(C)[C@@H](CC(C)C)C(=O)N(C)[C@@H](C(C)C)C(=O)N1C (some centres unmarked) [Example 14, 3-Methoxycyclosporin]	0.6	10		
C/C=C/C[C@@H](C)[C@@H](O)[C@H]1C(=O)N[C@@H](CC)C(=O)N(C)C(OCC)C(=O)N(C)[C@@H](CC(C)C)C(=O)N[C@@H](C(C)C)C(=O)N(C)[C@@H](CC(C)C)C(=O)N[C@@H](C)C(=O)N[C@H](C)C(=O)N(C)[C@@H](CC(C)C)C(=O)N(C)[C@@H](CC(C)C)C(=O)N(C)[C@@H](C(C)C)C(=O)N1C (some centres unmarked) [Example 15, 3-Ethoxycyclosporin] (HELM PEPTIDE1{[C/C=C/C[C@@H](C)[C@@H](O)[C@@H](C(=O)[*:2])N(C)[*:1]].[Abu].[CCOC(C(=O)[*:2])N(C)[*:1]].[meL].V.[meL].A.[dA].[meL].[meL].[meV]}$PEPTIDE1,PEPTIDE1,1:R1-11:R2$$$V2.0)	0.6	15		Relative IC50, i.e. IC50 (cyclosporin A)/IC50 (test compound) (cyclophilin): 2
C/C=C/C[C@@H](C)[C@@H](O)[C@H]1C(=O)N[C@@H](CC)C(=O)N(C)[C@H](OC(C)(C)C)C(=O)N(C)[C@@H](CC(C)C)C(=O)N[C@@H](C(C)C)C(=O)N(C)[C@@H](CC(C)C)C(=O)N[C@@H](C)C(=O)N[C@H](C)C(=O)N(C)[C@@H](CC(C)C)C(=O)N(C)[C@@H](CC(C)C)C(=O)N(C)[C@@H](C(C)C)C(=O)N1C [Example 17, [D-Sar-(tert.-butoxy)^3]-cyclosporin] (HELM PEPTIDE1{[C/C=C/C[C@@H](C)[C@@H](O)[C@@H](C(=O)[*:2])N(C)[*:1]].[Abu].[CN([C@H](OC(C)(C)C)C(=O)[*:2])[*:1]].[meL].V.[meL].A.[dA].[meL].[meL].[meV]}$PEPTIDE1,PEPTIDE1,1:R1-11:R2$$$V2.0)			0.0189 ± 0.00103	
C=CCO[C@@H]1C(=O)N(C)[C@@H](CC(C)C)C(=O)N[C@@H](C(C)C)C(=O)N(C)[C@@H](CC(C)C)C(=O)N[C@@H](C)C(=O)N[C@H](C)C(=O)N(C)[C@@H](CC(C)C)C(=O)N(C)[C@@H](CC(C)C)C(=O)N(C)[C@@H](C(C)C)C(=O)N(C)[C@@H]([C@H](O)[C@H](C)C/C=C/C)C(=O)N[C@@H](CC)C(=O)N1C [Example 18, [D-Sar-(allyloxy)^3]-cyclosporin] (HELM PEPTIDE1{[C/C=C/C[C@@H](C)[C@@H](O)[C@@H](C(=O)[*:2])N(C)[*:1]].[Abu].[C=CCO[C@H](C(=O)[*:2])N(C)[*:1]].[meL].V.[meL].A.[dA].[meL].[meL].[meV]}$PEPTIDE1,PEPTIDE1,1:R1-11:R2$$$V2.0)			0.0102 ± 0.00221	
